ChEMBL document CHEMBL5244255, “An insight on medicinal attributes of 1,2,4-triazoles” (Eur J Med Chem, 2020)
Converted amounts (≈) assume the structure as drawn. “And” between values parts separate entries of the source, which are not always exact repeats. Equal values may be shown once.

Columns and labels:
[1] = Anticancer activity against human SK-MEL-128 cells assessed as cell growth inhibition incubated for 48 hrs by MTT assay; type: functional, cell-based; settings: SK-MEL-128, 48 h
DU-145 = assay: Anticancer activity against human DU-145 cells assessed as cell growth inhibition incubated for 48 hrs by MTT assay; type: functional, cell-based; settings: DU-145, 48 h
BT-20 = assay: Anticancer activity against human BT-20 cells assessed as cell growth inhibition incubated for 48 hrs by MTT assay; type: functional, cell-based; settings: BT-20, 48 h
A549 = assay: Anticancer activity against human A549 cells assessed as cell growth inhibition incubated for 48 hrs by MTT assay; type: functional, cell-based; settings: A549, 48 h
[2] = system: Mycobacterium tuberculosis; assay: Antimycobacterial activity against Mycobacterium tuberculosis H37Rv measured […] by MABA assay; type: functional
[3] = system: Mycobacterium tuberculosis; assay: Potency index, ratio of test compound MIC to Pyrazinamide MIC for antimycobacterial activity against Mycobacterium tuberculosis H37Rv; type: functional
Plasmodium falciparum = assay: Antimalarial activity against Plasmodium falciparum; type: functional, organism-based
Candida albicans = assay: Antifungal activity against Candida albicans Y0109 assessed as fungal growth inhibition; type: functional
[4] = system: Mycobacterium tuberculosis; assay: Antimycobacterial activity against Mycobacterium tuberculosis H37Rv measured after 21 days; type: functional; settings: 504 h, time 21 day
[5] = system: Mycobacterium tuberculosis; assay: Antimycobacterial activity against Mycobacterium tuberculosis H37Rv; type: functional
RS4-11 = assay: Antiproliferative activity against human RS4-11 cells assessed as cell growth inhibition incubated for 48 hrs by MTT assay; type: functional, cell-based; settings: RS4-11, 48 h
Jurkat = assay: Antiproliferative activity against human jurkat cells assessed as cell growth inhibition incubated for 48 hrs by MTT assay; type: functional, cell-based
MCF7 = assay: Antiproliferative activity against human MCF7 cells assessed as cell growth inhibition incubated for 48 hrs by MTT assay; type: functional, cell-based; settings: MCF7, 48 h
HeLa = assay: Antiproliferative activity against human HeLa cells assessed as cell growth inhibition incubated for 48 hrs by MTT assay; type: functional, cell-based
HT-29 = assay: Antiproliferative activity against human HT-29 cells assessed as cell growth inhibition incubated for 48 hrs by MTT assay; type: functional, cell-based; settings: HT-29, 48 h
Leishmania major [6] = assay: Antileishmanial activity against promastigotes stage of Leishmania major; type: functional, organism-based
Leishmania major [7] = assay: Potency index, ratio of test compound IC50 to amphotericin B IC50 for antileishmanial activity against promastigotes stage of leishmania major; type: functional
Leishmania major [8] = assay: Potency index, ratio of test compound IC50 to miltefosine IC50 for antileishmanial activity against promastigotes stage of leishmania major; type: functional
[9] = system: Mycobacterium tuberculosis; assay: Antimycobacterial activity against Mycobacterium tuberculosis H37Rv measured after 8 to 9 days; type: functional; settings: time 8-9 day
[10] = Inhibition of Mycobacterium tuberculosis shikimate dehydrogenase
Trypanosoma cruzi [11] = assay: Trypanocidal activity against amastigote stage of Trypanosoma cruzi; type: functional, organism-based
Trypanosoma cruzi [12] = assay: Trypanocidal activity against epimastigote stage of Trypanosoma cruzi; type: functional, organism-based
MDA-MB-231 = assay: Antiproliferative activity against human MDA-MB-231 cells assessed as cell growth inhibition by MTT assay; type: functional, cell-based
[13] = system: Xanthomonas oryzae pv. oryzae; assay: Antibacterial activity against Xanthomonas oryzae pv. oryzae assessed as bacterial growth inhibition; type: functional, organism-based
[14] = Plasmodium falciparum, read-out: IC50

With `CCN(CC)c1ccc2cc(C(=O)NNC(=O)Cn3nc(Cc4ccc(Cl)c(Cl)c4)n(N)c3=O)c(=O)oc2c1` the IC50 [1] was 3.1 µg/mL (≈ 5.4 µM), the IC50 (DU-145) was 3.1 µg/mL (≈ 5.4 µM) and the IC50 (BT-20) was 3.1 µg/mL (≈ 5.4 µM). For the same compound, the IC50 (A549) was 3.1 µg/mL (≈ 5.4 µM).

`O=c1cc(Cn2cc(Cn3cnn(-c4ccccc4)c3=O)nn2)c2c(ccc3ccccc32)o1` showed an MIC [2] of 1.6 µg/mL (≈ 3.55 µM) and a Ratio [3] of 2.

In the case of `Cc1nn(-c2ccccc2)c(-n2cncn2)c1-c1cc(-c2cc[nH]c2)cc2nc3ccccc3n12`, the IC50 (Plasmodium falciparum) is reported as 0.092 µg/mL and 0.041 µg/mL.

`CCC(=O)OC1CCN(CC(O)(Cn2cncn2)c2ccc(F)cc2F)CC1` (configuration not stated) gave an MIC80 (Candida albicans) of 9 nM (≈ 3.55 ng/mL).

For `COc1ccc(-n2ncn(Cc3cn(Cc4cc(=O)oc5ccc(Cl)cc45)nn3)c2=O)cc1`, the MIC [2] was 1.6 µg/mL (≈ 3.44 µM) and the Ratio [3] was 2.

`Brc1ccc(/C=C/c2nnc3c4ccccc4cnn23)cc1` gave an MIC [4] of 0.5 µg/mL (≈ 1.42 µM).

Compound `CC1CC(C)(C)CC(O)(c2nnc(-c3ccncc3)[nH]2)C1` (configuration not stated) has an MIC [5] of 0.59 µg/mL (≈ 2.06 µM).

Compound `COc1cc(C(=O)n2nc(-c3ccc(Br)cc3)nc2N)cc(OC)c1OC` has an IC50 (RS4-11) of under 1 µM, an IC50 (Jurkat) of under 1 µM and an IC50 (MCF7) of under 1 µM. It also gave an IC50 (HeLa) of under 1 µM and an IC50 (HT-29) of under 1 µM.

With `CC(C)C(C(=O)O)N1C(N)=NNC1(C)c1ccccc1O` (configuration not stated) the IC50 (Leishmania major [6]) was 0.0312 µg/mL (≈ 0.107 µM), the “Ratio IC50” value (Leishmania major [7]) was 36 and the “Ratio IC50” value (Leishmania major [8]) was 36.

`O=[N+]([O-])c1ccc(C2=Nn3c(nnc3-c3ccc(Br)cc3)CC2)cc1` gave an MIC [9] of 0.25 µg/mL (≈ 0.628 µM) and an IC50 [10] of 86.39 µg/mL (≈ 217 µM).

Work on `Nn1c(Cc2ccc(Cl)cc2)nn(CC(=O)NNC(=O)c2cc3cc(Cl)cc(Cl)c3oc2=O)c1=O` yielded an IC50 [1] of 3.1 µg/mL (≈ 5.76 µM), an IC50 (DU-145) of 3.1 µg/mL (≈ 5.76 µM) and an IC50 (BT-20) of 3.1 µg/mL (≈ 5.76 µM). It also gave an IC50 (A549) of 3.1 µg/mL (≈ 5.76 µM).

With `S=c1[nH]nc(/C=C/C=C/c2ccc3c(c2)OCO3)n1C1CCCCC1` the IC50 (Trypanosoma cruzi [11]) was 8.87 µM and the IC50 (Trypanosoma cruzi [12]) was 18.3 µM.

Work on `Cc1nn(-c2ccccc2)c(-n2cncn2)c1-c1cc(-c2ccccc2)cc2nc3ccccc3n12` yielded an IC50 (Plasmodium falciparum; [14]) of 0.041 µg/mL (≈ 0.0877 µM).

Compound `COc1cccc(-c2nc(N)n(C(=O)c3cc(OC)c(OC)c(OC)c3)n2)c1` has an IC50 (RS4-11) of under 1 µM, an IC50 (Jurkat) of under 1 µM and an IC50 (MCF7) of under 1 µM. The IC50 (HeLa) was under 1 µM and the IC50 (HT-29) was under 1 µM.

In the case of `OC1(c2nnc(-c3ccncc3)[nH]2)CCCCC1`, the MIC [5] is reported as 0.59 µg/mL (≈ 2.42 µM).

In the case of `CC1CCC(O)(c2nnc(-c3ccncc3)[nH]2)CC1` (configuration not stated), the MIC [5] is reported as 0.59 µg/mL (≈ 2.28 µM).

`Cc1nn(-c2ccccc2)c(=O)n1-n1c(-c2cc3ccccc3oc2=O)cs/c1=N\c1ccc(Cl)cc1` gave an IC50 (MDA-MB-231) of 0.16 µg/mL (≈ 0.303 µM).

For `C(/C=C/c1ccc2c(c1)OCO2)=C\C1=NNC(SCc2ccccc2)N1C1CCCCC1` (configuration not stated), the IC50 (Trypanosoma cruzi [11]) was 3.61 µM and the IC50 (Trypanosoma cruzi [12]) was 3.18 µM.

Compound `O=C(CCl)OC1CCN(CC(O)(Cn2cncn2)c2ccc(F)cc2F)CC1` (configuration not stated) has an MIC80 (Candida albicans) of 9 nM (≈ 3.73 ng/mL).

With `NC1=NNC(c2ccccc2O)N1C(Cc1cc2ccccc2[nH]1)C(=O)O` (configuration not stated) the IC50 (Leishmania major [6]) was 0.0312 µg/mL (≈ 0.0854 µM), the “Ratio IC50” value (Leishmania major [7]) was 36 and the “Ratio IC50” value (Leishmania major [8]) was 36.

With `CCN(CC)c1ccc2cc(C(=O)NNC(=O)Cn3nc(C)n(N)c3=O)c(=O)oc2c1` the IC50 [1] was 3.1 µg/mL (≈ 7.22 µM), the IC50 (DU-145) was 3.1 µg/mL (≈ 7.22 µM) and the IC50 (BT-20) was 3.1 µg/mL (≈ 7.22 µM). It also gave an IC50 (A549) of 3.1 µg/mL (≈ 7.22 µM).

In the case of `CC(C)C(C(=O)O)N1C(N)=NNC1c1ccccc1O` (configuration not stated), the IC50 (Leishmania major [6]) is reported as 0.0312 µg/mL (≈ 0.112 µM), the “Ratio IC50” value (Leishmania major [7]) is reported as 36 and the “Ratio IC50” value (Leishmania major [8]) is reported as 36.

For `Brc1ccc(OCc2nn3c(-c4ccc(Br)cc4)nnc3s2)cc1`, the MIC [9] was 14.4 µg/mL (≈ 30.9 µM) and the IC50 [10] was 14.42 µg/mL (≈ 30.9 µM).

With `Cc1nn(-c2ccccc2)c(-n2cncn2)c1-c1cc(-c2ccc(O)cc2)cc2nc3ccccc3n12` the IC50 (Plasmodium falciparum) was 0.041 µg/mL (≈ 0.0848 µM) and the IC50 (Plasmodium falciparum; [14]) was 0.054 µg/mL (≈ 0.112 µM).

Compound `CCCCCCCCCCCCCCCCOP(=O)([O-])OCC[N+](C)(C)C` [MILTEFOSINE] has an IC50 (Leishmania major [6]) of 3.19 µg/mL (≈ 7.83 µM).

With `C[C@@H]1[C@H](O)[C@@H](C)/C=C/C=C/C=C/C=C/C=C/C=C/C=C/[C@H](O[C@@H]2O[C@H](C)[C@@H](O)[C@H](N)[C@@H]2O)C[C@@H]2O[C@](O)(C[C@@H](O)C[C@@H](O)[C@H](O)CC[C@@H](O)C[C@@H](O)CC(=O)O[C@H]1C)C[C@H](O)[C@H]2C(=O)O` [AMPHOTERICIN B] the IC50 (Leishmania major [6]) was 0.0472 µg/mL (≈ 0.0511 µM).

`CCCCCCCCCNC(=O)Cc1nnc2c3ccccc3cnn12` gave an MIC [4] of 0.5 µg/mL (≈ 1.41 µM).

`Cc1ccc(-c2cc(-c3c(C)nn(-c4ccccc4)c3-n3cncn3)n3c(c2)nc2ccccc23)cc1` gave an IC50 (Plasmodium falciparum; [14]) of 0.041 µg/mL (≈ 0.0851 µM).

`O=C(OC1CCN(CC(O)(Cn2cncn2)c2ccc(F)cc2F)CC1)C(F)(F)F` (configuration not stated) gave an MIC80 (Candida albicans) of 9 nM (≈ 3.91 ng/mL).

Compound `CC(C)C(=O)OC1CCN(CC(O)(Cn2cncn2)c2ccc(F)cc2F)CC1` (configuration not stated) has an MIC80 (Candida albicans) of 9 nM (≈ 3.68 ng/mL).

`CCCCCCCC(=O)OC1CCN(CC(O)(Cn2cncn2)c2ccc(F)cc2F)CC1` (configuration not stated) showed an MIC80 (Candida albicans) of 9 nM (≈ 4.18 ng/mL).

`O=C(CSc1nnc(C2CCN(c3ncnc4ccccc34)CC2)n1-c1ccccc1)Nc1cccc(F)c1` showed an EC50 [13] of 34.5 µg/mL (≈ 63.9 µM).

In the case of `CCCCSC1NN=C(/C=C/C=C/c2ccc3c(c2)OCO3)N1C1CCCCC1` (configuration not stated), the IC50 (Trypanosoma cruzi [11]) is reported as 3.61 µM and the IC50 (Trypanosoma cruzi [12]) is reported as 3.18 µM.

With `O=[N+]([O-])c1ccc(C2=Nn3c(nnc3-c3ccnc(F)c3)CC2)cc1` the MIC [9] was 0.25 µg/mL (≈ 0.739 µM) and the IC50 [10] was 73.57 µg/mL (≈ 217 µM).

`O=C(CSc1nnc(C2CCN(c3ncnc4ccccc34)CC2)n1-c1ccccc1)Nc1cccc([N+](=O)[O-])c1` gave an EC50 [13] of 34.5 µg/mL (≈ 60.9 µM).
